From article PMC7812938, “Dehydrobufotenin extracted from the Amazonian toad Rhinella marina (Anura: Bufonidae) as a prototype molecule for the development of antiplasmodial drugs” (The Journal of Venomous Animals and Toxins Including …, 2021)
Read-outs that look alike come from different tables or passages of the source.

Columns and labels:
[1] = system: WI-26VA4 human pulmonary fibroblast cells; assay: In vitro cytotoxicity, MTT assay; format: cell-based; details: for SI (selectivity index): SI = LD50 Cell / IC50 P. falciparum, WI-26VA4 vs W2; for LD50 ± SD (lethal drug concentration that reduced WI-26VA4 cells viability in 50%): WI-26VA4 human pulmonary fibroblast cells, MTT, 24 hours, mean and SD of triplicate experiments
Method: The cells were washed with culture medium, trypsinized, distributed in a flat-bottomed 96-well plate (5×10^3 cells/well), and incubated for 18 hours at 37 °C for cell adherence. The compounds (20 μL) were diluted in different concentrations ranging from 0.2 - 200 μg/mL and incubated with the cells for 24 hours in a 5% CO2 atmosphere at 37 °C.
A 3-(4,5-dimethylthiazol-2-yl)-2,5-diphenyltetrazolium bromide (MTT) solution (5 mg/mL; 20 μL/well) was added to evaluate mitochondrial viability; after a further 3 hours incubation, the supernatants were carefully removed, 100 μL of DMSO was added to each well, and the reactions were mixed to solubilize the formazan crystals. […] The cell viability was expressed as a percentage of the control absorbance in the untreated cells after subtracting the appropriate background.
A selectivity index (SI) corresponding to the ratio between the cytotoxic and antiplasmodial activities of each compound tested. The values greater than 10 were considered indicative of lack of toxicity, whereas the substances with values below 10 were considered toxic. The SI index was calculated as follow:
SI=LD50 Cell/IC50 P.falciparum
(§1) The coefficients of regression of these curves were calculated using the method of least squares. The LD50 were determined based on the equation of the curve obtained by plotting the % of cellular death versus the concentration of compound (GraphPad Prism Software, version 5.0 for Windows, San Diego, California, USA). The average IC50 and LD50 were compared using ANOVA. Statistical significance was defined at the 5% level (P<0.05).

[2] = system: P. falciparum W2 strain (chloroquine resistant); assay: In vitro antiplasmodial activity; format: cell-based, Plasmodium falciparum; details: read-out: IC50 ± SD (drug concentration that reduced parasite viability in 50%)
Text: P. falciparum continuous culture was maintained as previously described with minor modifications. […] The parasites at early stages were synchronized at ring stage by sorbitol treatment. Initial parasitemia was adjusted to 0.5% with 2% hematocrit in all experiments.
In vitro antiplasmodial activity of the bufadienolides (compounds dehydrobufotenin, marinobufotoxin, marinobufagin and bufalin) was done in 96 well plates. The growth inhibition of intraerythrocytic forms and parasite morphology in culture was assessed by microscopic observation of the Giemsa-stained thin blood films. Ring stage parasites (0.5% parasitemia and 2% hematocrit) were added to each well of 96-well microculture plates. The compounds (dehydrobufotenin, marinobufotoxin, marinobufagin and bufalin) were dissolved in DMSO and diluted to concentrations ranging from 0.78 to 100 μg/mL using complete medium and stored a 4 °C. After incubation at 37 °C for 48 hours, P. falciparum growth inhibition was assessed in Giemsa-stained smears by observing 5,000 erythrocytes per 1 thin blood film in triplicate. The culture medium was replaced with fresh medium with or without test samples/control drugs. […] All experiments were performed in triplicate.
as §1

[3] = Plasmodium falciparum, W2, 48 h

Row | Compound | SI (selectivity index) [1] | LD50 ± SD (lethal drug concentration that reduced WI-26VA4 cells viability in 50%) [1] [µM] | LD50 ± SD (lethal drug concentration that reduced WI-26VA4 cells viability in 50%) ([1]; listed as bufalin) [µM] | IC50 ([2]; P. falciparum W2 (chloroquine-resistant), 48 hours, Giemsa-stained smears, mean and SD of triplicate experiments) [µM] | IC50 [2, 3] [µM] | SI (selectivity index) ([1]; listed as dehydrobufotenin) | LD50 ± SD (lethal drug concentration that reduced WI-26VA4 cells viability in 50%) ([1]; listed as dehydrobufotenin) [µM] | LD50 ± SD (lethal drug concentration that reduced WI-26VA4 cells viability in 50%) ([1]; listed as marinobufagin) [µM] | LD50 ± SD (lethal drug concentration that reduced WI-26VA4 cells viability in 50%) ([1]; listed as marinobufotoxin) [µM]
1 | C[C@]12CC[C@H](O)C[C@H]1CC[C@@H]1[C@@H]2CC[C@]2(C)[C@@H](c3ccc(=O)oc3)CC[C@]12O [Bufalin] | 7.52 | 25.9 ± 7.04 | 25.9 | 3.44 ± 0.43 | – | – | – | – | –
2 | CCN(CC)CCCC(C)Nc1ccnc2cc(Cl)ccc12 (stereo not drawn) [Chloroquine (CQ), Chloroquine, reference compound] | – | – | – | – | 1.04 ± 0.21 | – | – | – | –
3 | C[N+]1(C)CCc2c[nH]c3ccc(O)c1c23 [Dehydrobufotenine, Dehydrobufotenin] | 12.33 | 235.76 ± 4.03 | – | – | 19.1 ± 0.2 | > 10 | 235.76 | – | –
4 | CC12CCC(O)CC1(O)CCC1C2CCC2(C)C(c3ccc(=O)oc3)CC3OC312 (stereo not drawn) [Marinobufagin] | 0.78 | 3.04 ± 0.25 | – | – | 3.89 ± 0.42 | – | – | 3.04 | –
5 | CC12CCC(OC(=O)CCCCCCC(=O)NC(CCCNC(=N)N)C(=O)O)CC1(O)CCC1C2CCC2(C)C(c3ccc(=O)oc3)CC3OC312 (stereo not drawn) [Marinobufotoxin, 3-(N-suberoylargininyl) marinobufagin] | 1.67 | 8.89 ± 2.66 | – | – | 5.31 ± 0.25 | – | – | – | 8.89
